Results as given in patent US10610535B2 (The Regents of the University of California, priority 2005, dated 2020).

Columns and labels:
[1] = system: spinal cords of mice with EAE; assay: Spinal cord histopathology and immunohistochemistry in EAE (Example 5); format: in vivo; conditions: acute phase of EAE
Source text: Mice were deeply anesthetized with isoflurane and perfused transcardially with ice-cold 0.9% saline, followed by 10% formalin. Spinal cord columns were removed and postfixed overnight in 10% formalin and cryoprotected with 20% sucrose solution, in PBS. Spinal cords were removed from the column, cut in three parts (cervical, thoracic, and lumbar), and embedded in gelatin/sucrose mix. Spinal cord regions in gelatin were further postfixed and stored in 20% sucrose. Free-floating sections (25 μm thick) were cut coronally with a sliding microtome and collected serially in PBS. […]
To quantify immunostaining results, sections from spinal cord levels T1-T5 were examined, six from each mouse, with n=3 mice per treatment group, for a total of 18 sections per treatment group. […] All images were converted to grayscale and then analyzed by density measurement with ImageJ version 1.29 (the Windows version of NIH Image), downloaded from rsb.info.nih.gov/ij. A fixed threshold range of 0-160 was chosen to highlight the staining signals in normal spinal cord sections, and the total area within this range was measured, averaged, and compared.
Increase in total number of infiltrating cells after induction of EAE was measured by density measurements of DAPI+nuclei in the whole white matter. Neuronal cells were quantified by counting the NeuN+/β3-tubulin+/DAPI+ cells per square millimeter in the whole gray matter. […]

[2] = system: post-partum patient with relapsing remitting multiple sclerosis; assay: Case of post-partum relapsing remitting MS patient; format: in vivo, human
Procedure: A patient was diagnosed as having relapsing remitting multiple sclerosis. Following the delivery of their first child (now […]), the patient was treated only with Copaxone and relapsed at 6 weeks. Following the delivery of their second child (now […]), the patient was again treated with Copaxone alone and again relapsed, this time at 4.5 months. Following a subsequent pregnancy, the patient was treated with 8 mg estriol/day in an attempt to prevent their post partum relapses.
Following the birth of the patient's third child (now 6 months), the patient resumed treatment with Copaxone as before. However, on day 10 post-partum they began taking estriol 8 mg/daily in an oral dosage form. […] Since monthly brain MRIs with gadolinium to detect enhancing MS lesions are more sensitive for inflammatory disease activity than relapses, the patient underwent serial monthly MRIs at post partum months 4, 5, and 6.
The patient doubled the progesterone minipill for 2 weeks to stabilize the endometrium. Otherwise no adverse events have been reported.

| Compound | Decrease of Mac 3+ cells in gray matter compared with vehicle-treated EAE mice [1] [%] | Time to post-partum relapse ([2]; Copaxone alone, after delivery of second child) [months] | Time to post-partum relapse ([2]; Copaxone only, after delivery of first child) [weeks] |
| --- | --- | --- | --- |
| CCCc1c(-c2ccc(O)cc2)nn(-c2ccc(O)cc2)c1-c1ccc(O)cc1 [PPT, propyl pyrazole triol] | ~65 | – | – |
| C[C@]12CC[C@@H]3c4ccc(O)cc4CC[C@H]3[C@@H]1CC[C@@H]2O [estradiol, 17β-estradiol] | ~65 | – | – |
| glatiramer acetate copolymer-1 [Copaxone] | – | 4.5 | 6 |
